# Ends that are not written are not given here.
# How the values were obtained:
# HSV-1 = experiment: Plaque formation assay of extracellular HSV-1 particles; type: cell-based, herpes simplex virus type 1; conditions: supernatant in plaque formation assay
# Protocol: (A) Amino acid sequence of Protopolybia-MP III. Basic residues are labeled blue, and acidic residues are labeled red. (B,C) Suppression of intracellular HSV-1 infection by Protopolybia-MP III. Cells were preincubated with Protopolybia-MP III at different concentrations or PBS for 1 h and then infected with HSV-1 at a multiplicity of infection (MOI) of 1. After 24 h, the cells were collected. Intracellular HSV-1 RNA was analyzed by qPCR (B), and intracellular HSV-1 ICP0 protein levels were analyzed by Western blotting (C). (D) Suppression of Protopolybia-MP III on extracellular HSV-1 particles. Cells were treated with Protopolybia-MP III at different concentrations or PBS for 24 h, and then the supernatant was collected and evaluated in a plaque formation assay. (E) Cytotoxicity of Protopolybia-MP III to Vero cells. Cells were treated with Protopolybia-MP III or PBS at different concentrations for 24 h, and then the cytotoxicity was determined by CCK8 assay. * p < 0.05. ** p < 0.01. *** p < 0.001.
# Figure 2 Protopolybia-MP III inhibits HSV-1 replication in human cell lines. (A) Cytotoxicities of Protopolybia-MP III to A549 cells, HCEC, and SK-N-MC. Cells were treated with Protopolybia-MP III at different concentrations or PBS for 24 h, and then cytotoxicities were determined by the CCK8 assay. (B,C) Suppression of intracellular HSV-1 infection by Protopolybia-MP III in A549 cells, HCEC, and SK-N-MC. Cells were preincubated with Protopolybia-MP III at different concentrations or PBS for 1 h and then infected with HSV-1 at an MOI of 1. After 24 h, the cells were collected. Intracellular HSV-1 RNA was analyzed by qPCR (B), and intracellular HSV-1 ICP0 protein expression levels were analyzed by Western blotting (C). (D) Inhibition of Protopolybia-MP III on extracellular HSV-1 particles in A549 cells, HCEC, and SK-N-MC. Cells were treated with Protopolybia-MP III at different concentrations or PBS for 24 h, and then the supernatant was collected and evaluated in a plaque formation assay. * p < 0.05. ** p < 0.01. *** p < 0.001.
# Vero cells seeded in a 24-well plate at 100% confluence were infected with virus diluent or supernatant. After 1 h of absorption at 37 °C, the supernatant was removed. Cells were washed three times with PBS and replenished with a plaque-covering layer (MEM with 2% FBS and 1.5% carboxymethylcellulose). After an incubation period of approximately 3 days, the cells were stained with 1% crystal violet containing 10% methanol for 0.5 h. Then, the plaques were counted, and the viral titer was calculated according to the plaque number and dilution.
# HSV-1 virion = experiment: HSV-1 free virion infectivity assay, qPCR; type: cell-based, herpes simplex virus type 1; conditions: then Vero cells infected, 24 h
# Protocol: Figure 5 Protopolybia-MP III destroys the integrity of HSV-1 free virions. (A) Schematic diagram for studying the effect of Protopolybia-MP III on HSV-1 free virion infectivity. (B) Effects of Protopolybia-MP III on HSV-1 free virion infectivity at different temperatures. HSV-1 (MOI = 1) and 20 μg/mL Protopolybia-MP III or PBS were coincubated at 4 °C, 22 °C, and 37 °C for 1 h, and then Vero cells were infected as described in (A). After 24 h, cells were collected, and intracellular HSV-1 RNA was analyzed by qPCR. (C) Effects of different concentrations of Protopolybia-MP III on HSV-1 free virion infectivity. HSV-1 (MOI = 1) and 1 or 10 μg/mL Protopolybia-MP III or PBS were coincubated at 37 °C for 1 h, and then Vero cells were infected as described in (A). After 24 h, cells were collected, and intracellular HSV-1 RNA was analyzed by qPCR. (D,E) The effect of Protopolybia-MP III on HSV-1 free virion integrity. HSV-1 and 20 μg/mL Protopolybia-MP III or PBS were coincubated at 37 °C for 1 h. Then, after centrifuging for 2 h at 40,000 rpm at 4 °C, the contents of HSV-1 gB in the supernatant and precipitate were detected by Western blotting (D). In addition, the structure of HSV-1 virions after incubation with Protopolybia-MP III was observed by electron microscopy. The red arrow points to a destroyed HSV-1 virion. *** p < 0.001.
# Figure 7 Antiviral activity analysis of Protopolybia-MP III mutants. (A) Amino acid sequences of Protopolybia-MP III mutants. Identical amino acids among Protopolybia-MP I, Protopolybia-MP III, and its mutants are marked in blue, and different amino acids are marked in red. (B) Suppression of Protopolybia-MP I, Protopolybia-MP III, and its mutants on intracellular HSV-1 content. Cells were preincubated with 20 μg/mL peptides or PBS for 1 h and then infected with HSV-1 at an MOI of 1. After 24 h, the cells were collected. Intracellular HSV-1 ICP0 protein levels were analyzed by Western blotting. The ratios of HSV-1 ICP0 to GAPDH were calculated by ImageJ software. (C) Inhibition of HSV-1 free virion infectivity by Protopolybia-MP I, Protopolybia-MP III, and its mutants. HSV-1 (MOI = 1) and 5 μg/mL peptides or PBS were coincubated at 37 °C for 1 h, and the mixtures were then used to infect Vero cells. After 24 h, cells were collected, and intracellular HSV-1 RNA was analyzed by qPCR. ns, no significance. * p < 0.05. ** p < 0.01. *** p < 0.001.
# Cells were collected and lysed using TRIzol reagent (Beyotime Biotechnology, Shanghai, China) to release the intracellular total RNA, followed by precipitation with isopropanol. The first-strand cDNA was reverse-transcribed by the HiScript III 1st Strand cDNA Synthesis Kit (+gDNA wiper) (Vazyme, Nanjing, China). The cDNA was quantitated by qPCR with primers using Taq Pro Universal SYBR qPCR Master Mix (Vazyme). The HSV-1 primers were 5′-[…]-3′ (sense) and 5′-[…]-3′ (antisense). The monkey GAPDH primers were 5′-[…]-3′ (sense) and 5′-[…]-3′ (antisense). The human GAPDH primers were 5′-[…]-3′ (sense) and 5′-[…]-3′ (antisense). qPCR experiments were performed on a Bio-Rad CFX96 Touch (Pleasanton, CA, USA) according to the manufacturer’s instructions.
substance,measurement,setting,value
INWLKLGKAVIDAL-NH2 [Protopolybia-MP III],extracellular HSV-1 level versus PBS,HSV-1; A549 cells treated 24 h,lower
same,extracellular HSV-1 level versus PBS,HSV-1; HCEC treated 24 h,lower
same,extracellular HSV-1 level versus PBS,HSV-1; SK-N-MC treated 24 h,lower
same,extracellular HSV-1 particles (plaques),HSV-1; Vero cells treated 24 h,fewer plaques
same,HSV-1 virions inactivated,HSV-1 virion; 1 μg/mL coincubated with HSV-1 (MOI 1) at 37 °C for 1 h,51%
same,HSV-1 virions inactivated,HSV-1 virion; 10 μg/mL coincubated with HSV-1 (MOI 1) at 37 °C for 1 h,99%
same,inhibition rate of HSV-1 virion infectivity,HSV-1 virion; 20 μg/mL coincubated with HSV-1 (MOI 1) at 4 °C for 1 h,above 99%
same,inhibition rate of HSV-1 virion infectivity,HSV-1 virion; 20 μg/mL coincubated with HSV-1 (MOI 1) at 22 °C for 1 h,above 99%
same,inhibition rate of HSV-1 virion infectivity,HSV-1 virion; 20 μg/mL coincubated with HSV-1 (MOI 1) at 37 °C for 1 h,above 99%
same,inhibition rate of HSV-1 free virion infectivity,HSV-1 virion; mutant comparison (Figure 7C): 5 μg/mL coincubated with HSV-1 (MOI 1) at 37 °C for 1 h,97.3%

# Reference: publication PMC10976043, “Function and Mechanism of Antiviral Wasp Venom Peptide Protopolybia-MP III and Its Derivatives against HSV-1” (Toxins, 2024)
